43 compounds from the Kinase Knowledgebase extract (Sharma et al. 2016) can be followed below.

A value given as a limit tells only on which side of the number the result lay.

The target of one test is PIK3CG (human) (UniProt P48736). Put plainly: Inhibition of PIK3CG Kinase Activity.
Another test has as its target PIK3CD (Human) (UniProt O00329). The test is described as follows: Inhibition of PIK3CD Kinase Activity.
Another test deals with PIK3CA (human) (UniProt P42336). The test is described as follows: Inhibition of PIK3CA Kinase Activity.
Chain of PIK3CA (human) (P42336 whole entry, looked up): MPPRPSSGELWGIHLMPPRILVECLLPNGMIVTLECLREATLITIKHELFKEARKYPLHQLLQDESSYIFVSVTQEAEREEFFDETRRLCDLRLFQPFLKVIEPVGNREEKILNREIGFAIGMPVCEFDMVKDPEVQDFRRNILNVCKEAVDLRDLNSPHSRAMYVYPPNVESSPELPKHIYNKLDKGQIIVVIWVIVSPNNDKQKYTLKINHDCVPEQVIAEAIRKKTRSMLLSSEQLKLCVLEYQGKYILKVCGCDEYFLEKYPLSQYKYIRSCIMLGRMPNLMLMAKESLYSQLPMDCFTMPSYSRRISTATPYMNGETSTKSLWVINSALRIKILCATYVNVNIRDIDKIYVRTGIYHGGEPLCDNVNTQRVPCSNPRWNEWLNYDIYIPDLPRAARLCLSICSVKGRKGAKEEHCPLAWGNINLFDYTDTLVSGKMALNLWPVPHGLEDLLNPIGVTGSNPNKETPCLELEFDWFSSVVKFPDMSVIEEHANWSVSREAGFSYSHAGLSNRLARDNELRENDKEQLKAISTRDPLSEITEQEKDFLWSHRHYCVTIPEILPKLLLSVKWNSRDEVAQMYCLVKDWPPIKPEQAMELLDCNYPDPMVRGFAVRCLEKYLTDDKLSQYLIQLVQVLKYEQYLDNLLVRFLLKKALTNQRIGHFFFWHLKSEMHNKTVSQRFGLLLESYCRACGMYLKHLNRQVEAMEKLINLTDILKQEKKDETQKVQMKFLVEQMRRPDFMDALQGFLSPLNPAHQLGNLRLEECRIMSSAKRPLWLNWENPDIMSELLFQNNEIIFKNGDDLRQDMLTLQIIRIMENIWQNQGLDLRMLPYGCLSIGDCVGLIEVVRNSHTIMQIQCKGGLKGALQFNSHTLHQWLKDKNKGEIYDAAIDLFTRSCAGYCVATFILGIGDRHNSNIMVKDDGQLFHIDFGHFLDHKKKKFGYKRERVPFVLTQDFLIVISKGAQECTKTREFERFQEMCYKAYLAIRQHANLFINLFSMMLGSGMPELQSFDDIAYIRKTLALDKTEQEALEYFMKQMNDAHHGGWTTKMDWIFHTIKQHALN
The next test addresses PIK3CB (Human) (UniProt P42338). Put plainly: Inhibition of PIK3CB Kinase Activity.

Chain of PIK3CG (human) (P48736 whole entry, looked up): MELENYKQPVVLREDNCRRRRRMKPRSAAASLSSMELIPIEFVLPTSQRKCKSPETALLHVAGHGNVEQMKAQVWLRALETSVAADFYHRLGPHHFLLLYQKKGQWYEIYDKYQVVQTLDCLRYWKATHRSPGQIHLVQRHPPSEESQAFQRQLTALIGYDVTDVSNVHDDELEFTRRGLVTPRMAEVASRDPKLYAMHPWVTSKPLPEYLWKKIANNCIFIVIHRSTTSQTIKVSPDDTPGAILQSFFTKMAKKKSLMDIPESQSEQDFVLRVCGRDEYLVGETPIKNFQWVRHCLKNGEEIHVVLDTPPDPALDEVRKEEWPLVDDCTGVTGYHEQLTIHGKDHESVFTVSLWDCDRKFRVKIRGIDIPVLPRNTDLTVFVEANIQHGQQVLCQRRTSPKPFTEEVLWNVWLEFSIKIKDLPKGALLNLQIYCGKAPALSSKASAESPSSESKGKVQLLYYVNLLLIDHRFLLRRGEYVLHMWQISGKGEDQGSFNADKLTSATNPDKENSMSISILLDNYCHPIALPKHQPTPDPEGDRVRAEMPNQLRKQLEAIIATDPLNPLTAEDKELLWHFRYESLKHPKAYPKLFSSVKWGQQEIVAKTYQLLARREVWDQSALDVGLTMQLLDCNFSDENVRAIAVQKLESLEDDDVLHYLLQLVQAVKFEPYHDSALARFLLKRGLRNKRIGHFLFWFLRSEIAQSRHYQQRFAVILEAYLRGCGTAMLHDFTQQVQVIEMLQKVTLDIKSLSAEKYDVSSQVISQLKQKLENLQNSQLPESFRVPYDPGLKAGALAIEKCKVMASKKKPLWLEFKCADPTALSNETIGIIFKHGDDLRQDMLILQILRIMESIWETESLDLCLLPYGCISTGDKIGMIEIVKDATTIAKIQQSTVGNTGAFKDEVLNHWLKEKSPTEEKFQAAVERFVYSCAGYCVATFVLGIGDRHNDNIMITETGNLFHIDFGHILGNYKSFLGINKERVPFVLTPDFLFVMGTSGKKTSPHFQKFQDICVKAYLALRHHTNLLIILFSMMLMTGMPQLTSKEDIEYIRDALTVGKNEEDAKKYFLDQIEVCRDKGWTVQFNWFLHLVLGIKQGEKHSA
Chain of PIK3CB (Human) (P42338 whole entry, looked up): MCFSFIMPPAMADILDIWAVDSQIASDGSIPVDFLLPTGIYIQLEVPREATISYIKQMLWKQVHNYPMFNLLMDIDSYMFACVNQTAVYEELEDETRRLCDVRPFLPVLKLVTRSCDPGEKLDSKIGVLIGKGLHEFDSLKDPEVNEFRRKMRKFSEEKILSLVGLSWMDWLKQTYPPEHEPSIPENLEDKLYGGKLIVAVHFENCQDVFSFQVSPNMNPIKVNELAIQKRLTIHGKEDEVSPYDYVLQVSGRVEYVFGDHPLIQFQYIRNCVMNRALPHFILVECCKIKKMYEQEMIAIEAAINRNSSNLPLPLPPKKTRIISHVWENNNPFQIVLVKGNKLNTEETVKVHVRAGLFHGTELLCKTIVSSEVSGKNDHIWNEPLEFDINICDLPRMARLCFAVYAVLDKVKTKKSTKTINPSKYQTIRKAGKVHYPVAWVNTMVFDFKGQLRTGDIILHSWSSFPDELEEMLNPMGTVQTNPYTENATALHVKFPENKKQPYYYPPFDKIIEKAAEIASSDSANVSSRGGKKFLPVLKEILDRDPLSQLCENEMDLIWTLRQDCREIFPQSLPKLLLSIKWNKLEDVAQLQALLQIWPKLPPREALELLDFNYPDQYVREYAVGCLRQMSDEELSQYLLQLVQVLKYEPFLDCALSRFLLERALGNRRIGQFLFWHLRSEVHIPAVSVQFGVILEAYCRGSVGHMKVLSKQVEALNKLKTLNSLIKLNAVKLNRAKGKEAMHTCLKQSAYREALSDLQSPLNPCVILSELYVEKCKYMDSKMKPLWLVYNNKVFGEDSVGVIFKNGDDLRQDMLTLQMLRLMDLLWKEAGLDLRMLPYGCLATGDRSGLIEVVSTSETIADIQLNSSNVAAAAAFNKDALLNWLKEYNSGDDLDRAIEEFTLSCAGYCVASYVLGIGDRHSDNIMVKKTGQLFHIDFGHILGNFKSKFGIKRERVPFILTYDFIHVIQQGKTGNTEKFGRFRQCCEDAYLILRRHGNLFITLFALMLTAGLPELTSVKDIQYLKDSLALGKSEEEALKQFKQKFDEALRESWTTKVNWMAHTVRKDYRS
Chain of PIK3CD (Human) (O00329 whole entry, looked up): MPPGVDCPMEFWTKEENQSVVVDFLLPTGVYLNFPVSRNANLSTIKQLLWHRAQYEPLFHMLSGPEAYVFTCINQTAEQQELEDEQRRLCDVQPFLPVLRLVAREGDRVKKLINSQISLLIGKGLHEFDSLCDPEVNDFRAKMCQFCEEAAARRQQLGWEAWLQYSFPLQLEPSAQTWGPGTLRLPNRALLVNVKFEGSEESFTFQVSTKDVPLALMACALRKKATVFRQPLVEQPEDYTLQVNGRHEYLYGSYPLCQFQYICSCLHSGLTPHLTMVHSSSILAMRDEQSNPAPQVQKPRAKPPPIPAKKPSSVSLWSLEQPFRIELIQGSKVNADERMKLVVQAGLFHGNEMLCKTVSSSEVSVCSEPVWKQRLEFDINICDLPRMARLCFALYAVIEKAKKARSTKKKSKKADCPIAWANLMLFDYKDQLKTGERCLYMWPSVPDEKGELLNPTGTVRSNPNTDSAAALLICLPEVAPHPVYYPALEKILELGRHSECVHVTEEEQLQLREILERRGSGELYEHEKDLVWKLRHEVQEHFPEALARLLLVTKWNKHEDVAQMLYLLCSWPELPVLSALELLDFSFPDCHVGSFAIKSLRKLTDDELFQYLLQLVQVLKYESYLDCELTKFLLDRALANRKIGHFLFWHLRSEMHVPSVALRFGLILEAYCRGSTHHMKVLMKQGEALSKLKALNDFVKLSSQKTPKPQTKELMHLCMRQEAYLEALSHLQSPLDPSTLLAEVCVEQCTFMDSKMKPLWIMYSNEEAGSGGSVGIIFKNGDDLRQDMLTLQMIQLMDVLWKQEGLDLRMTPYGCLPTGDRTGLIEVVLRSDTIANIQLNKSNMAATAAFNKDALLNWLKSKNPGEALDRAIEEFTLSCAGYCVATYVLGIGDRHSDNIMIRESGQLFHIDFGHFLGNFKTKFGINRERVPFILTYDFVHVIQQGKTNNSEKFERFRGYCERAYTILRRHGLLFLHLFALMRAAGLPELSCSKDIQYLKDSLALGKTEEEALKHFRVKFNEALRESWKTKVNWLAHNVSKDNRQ

Take `C[C@H](Nc1nc(N)nc2[nH]cnc12)c1cc2cccc(-c3cccnc3)c2c(=O)n1-c1ccccc1`: the IC50 was less than 0.1 µM against PIK3CG (human), less than 0.1 µM against PIK3CD (Human) and 0.1 to 1 µM on PIK3CA (human).

For the compound `C[C@H](Nc1ncnc(N)n1)c1cc2cccc(-c3cnn(C)c3)c2c(=O)n1-c1ccccc1`, the IC50 at PIK3CB (Human) is more than 10 µM; against PIK3CD (Human), less than 0.1 µM; against PIK3CA (human), more than 10 µM.

`COc1ncc(-c2cccc3cc([C@H](C)Nc4ncnc5[nH]cnc45)n(-c4ccccc4)c(=O)c23)cn1`: the results for the IC50 against PIK3CB (Human) and against PIK3CD (Human) were more than 10 µM and less than 0.1 µM, respectively.

For the compound `C[C@H](Nc1ncnc2[nH]cnc12)c1cc2cccc(C#N)c2c(=O)n1-c1ccccc1`, the IC50 was less than 0.1 µM on PIK3CG (human), less than 0.1 µM against PIK3CD (Human) and more than 10 µM on PIK3CA (human).

Turning to `Cc1cnn(-c2cccc3cc([C@H](C)Nc4ncnc5[nH]cnc45)n(-c4ccccc4)c(=O)c23)c1`, the half-maximal inhibitory concentration (IC50) was more than 10 µM against PIK3CB (Human), 0.1 to 1 µM at PIK3CD (Human) and more than 10 µM against PIK3CA (human).

In the case of `C[C@H](Nc1ncnc2[nH]cnc12)c1cc2cccc(-c3cc[nH]n3)c2c(=O)n1-c1ccccc1`, the IC50 against PIK3CG (human) was less than 0.1 µM; against PIK3CB (Human), more than 10 µM; against PIK3CD (Human) it was less than 0.1 µM; on PIK3CA (human) it was more than 10 µM.

For `C[C@H](Nc1ncnc2[nH]cnc12)c1cc2cccc(NC3CCOCC3)c2c(=O)n1-c1ccccc1`, the IC50 is more than 10 µM at PIK3CB (Human), 0.1 to 1 µM against PIK3CD (Human) and more than 10 µM against PIK3CA (human).

Turning to `C[C@H](Nc1nc(N)ncc1Cl)c1cc2cccc(-c3cnn(C)c3)c2c(=O)n1-c1ccccc1`, the IC50 is 0.1 to 1 µM on PIK3CG (human), more than 10 µM against PIK3CB (Human), less than 0.1 µM against PIK3CD (Human) and more than 10 µM at PIK3CA (human).

Turning to `Cc1ccc(-c2cccc3cc([C@H](C)Nc4ncnc(N)n4)n(-c4ccccc4)c(=O)c23)cn1`, the IC50 at PIK3CB (Human) was more than 10 µM; on PIK3CD (Human), 0.1 to 1 µM; against PIK3CA (human), more than 10 µM.

In the case of `C[C@H](Nc1ncnc2[nH]cnc12)c1cc2cccc(-c3ccncc3)c2c(=O)n1-c1ccccc1`, the IC50 at PIK3CG (human) and against PIK3CD (Human) was less than 0.1 µM each time.

For `C[C@H](Nc1ncnc2[nH]cnc12)c1cc2cccc(N(C)C)c2c(=O)n1-c1ccccc1`, the IC50 against PIK3CB (Human) and at PIK3CA (human) was more than 10 µM throughout.

With `C[C@H](Nc1ncnc2[nH]cc(C(N)=O)c12)c1cc2cccc(-c3cnn(C)c3)c2c(=O)n1-c1ccccc1`, the IC50 at PIK3CG (human) and on PIK3CD (Human) was less than 0.1 µM each time.

For the compound `C[C@H](Nc1ncnc2[nH]cnc12)c1cc2cccc(-c3cnn(C)c3)c2c(=O)n1-c1ccccc1`, the IC50 is less than 0.1 µM on PIK3CG (human), more than 10 µM on PIK3CB (Human), less than 0.1 µM against PIK3CD (Human) and more than 10 µM against PIK3CA (human).

As for `C[C@H](Nc1nc(N)ncc1C#N)c1cc2cccc(-c3cnn(C)c3)c2c(=O)n1C1CC1`, the IC50 against PIK3CG (human), against PIK3CB (Human) and on PIK3CD (Human) was less than 0.1 µM throughout.

On to `C[C@H](Nc1ncnc2[nH]cnc12)c1cc2cccc(-c3cnn(C)c3)c2c(=O)n1-c1cccc(F)c1`, for which the IC50 was less than 0.1 µM against PIK3CG (human), more than 10 µM at PIK3CB (Human) and less than 0.1 µM on PIK3CD (Human).

Regarding `C[C@H](Nc1nc(N)ncc1C(F)(F)F)c1cc2cccc(-c3cnn(C)c3)c2c(=O)n1C1CC1`, the IC50 was less than 0.1 µM at PIK3CG (human), more than 10 µM on PIK3CB (Human), less than 0.1 µM against PIK3CD (Human) and more than 10 µM at PIK3CA (human).

As for `C[C@H](Nc1ncnc2[nH]cnc12)c1cc2cccc(-c3cccnc3)c2c(=O)n1-c1ccccc1`, the IC50 at PIK3CG (human) and against PIK3CD (Human) was less than 0.1 µM each time.

For `C[C@H](Nc1ncnc2[nH]cnc12)c1cc2cccc(-c3cccnc3)c2c(=O)n1C1CC1`, the IC50 against PIK3CG (human) is less than 0.1 µM; on PIK3CB (Human), 0.1 to 1 µM; against PIK3CD (Human), less than 0.1 µM.

As to `C[C@H](Nc1nc(N)ncc1I)c1cc2cccc(-c3cnn(C)c3)c2c(=O)n1-c1ccccc1`, the IC50 was less than 0.1 µM at PIK3CG (human), more than 10 µM on PIK3CB (Human), less than 0.1 µM at PIK3CD (Human) and more than 10 µM on PIK3CA (human).

Consider `Cc1cn(-c2cccc3cc([C@H](C)Nc4ncnc5[nH]cnc45)n(-c4ccccc4)c(=O)c23)cn1`, for which the IC50 at PIK3CB (Human) is more than 10 µM; against PIK3CD (Human), less than 0.1 µM; against PIK3CA (human), more than 10 µM.

Take `C[C@H](Nc1ncnc2[nH]cc(F)c12)c1cc2cccc(-c3cnn(C)c3)c2c(=O)n1C1CC1`: the IC50 on PIK3CG (human) is 0.1 to 1 µM; at PIK3CD (Human) it was less than 0.1 µM.

Take `C[C@H](Nc1ncnc2[nH]cnc12)c1cc2cccc(-c3cccnc3)c2c(=O)[nH]1`: the IC50 was 0.1 to 1 µM against PIK3CG (human), more than 10 µM on PIK3CB (Human), less than 0.1 µM against PIK3CD (Human) and more than 10 µM against PIK3CA (human).

With `C[C@H](Nc1ncnn2ccnc12)c1cc2cccc(-c3cnn(C)c3)c2c(=O)n1-c1ccccc1`, the IC50 on PIK3CG (human) is 0.1 to 1 µM; at PIK3CB (Human), more than 10 µM; at PIK3CD (Human), less than 0.1 µM.

Consider `CCc1cccc2cc([C@H](C)Nc3ncnc4[nH]cnc34)n(-c3ccccc3)c(=O)c12`, for which the IC50 against PIK3CG (human) and against PIK3CD (Human) was less than 0.1 µM throughout.

Turning to `C[C@H](Nc1ncnc(N)c1C#N)c1cc2cccc(-c3cnn(C)c3)c2c(=O)n1-c1ccccc1`, the IC50 against PIK3CG (human) is less than 0.1 µM; at PIK3CB (Human) it was more than 10 µM; against PIK3CD (Human) it was less than 0.1 µM.

For `C[C@H](Nc1nc(N)nc2[nH]cnc12)c1cc2cccc(-c3cnn(C)c3)c2c(=O)n1-c1ccccc1`, the IC50 was less than 0.1 µM against PIK3CG (human), less than 0.1 µM against PIK3CD (Human) and 0.1 to 1 µM against PIK3CA (human).

Consider `C[C@H](Nc1ncnc2[nH]cnc12)c1cc2cccc(-c3cccc(F)c3)c2c(=O)n1-c1ccccc1`, for which the IC50 against PIK3CG (human) and against PIK3CD (Human) was less than 0.1 µM throughout.

Consider `C[C@H](Nc1ncnn2cncc12)c1cc2cccc(-c3cnn(C)c3)c2c(=O)n1-c1ccccc1`, for which the IC50 on PIK3CG (human), at PIK3CB (Human) and against PIK3CA (human) was more than 10 µM throughout.

Regarding `C[C@H](Nc1ncnc2[nH]cnc12)c1cc2cccc(-n3cccn3)c2c(=O)n1-c1ccccc1`, the 50% inhibitory concentration (IC50) was more than 10 µM against PIK3CB (Human), 0.1 to 1 µM at PIK3CD (Human) and more than 10 µM at PIK3CA (human).

Regarding `Cc1ccc(-c2cccc3cc([C@H](C)Nc4nc(N)nc5[nH]cnc45)n(-c4ccccc4)c(=O)c23)cn1`, the results for the IC50 on PIK3CG (human), on PIK3CD (Human) and at PIK3CA (human) were less than 0.1 µM, less than 0.1 µM and 0.1 to 1 µM, respectively.

As to `C[C@H](Nc1ncnc2[nH]cnc12)c1cc2cccc(-c3cnn(C)c3)c2c(=O)[nH]1`, the IC50 at PIK3CG (human), against PIK3CB (Human) and at PIK3CA (human) was more than 10 µM in each case.

With `C[C@H](Nc1ncnc2[nH]cnc12)c1cc2cccc(N3CCOCC3)c2c(=O)n1-c1ccccc1`, the IC50 is 0.1 to 1 µM on PIK3CG (human), more than 10 µM on PIK3CB (Human), 0.1 to 1 µM at PIK3CD (Human) and more than 10 µM against PIK3CA (human).

For `C[C@H](Nc1ncnc2[nH]cnc12)c1cc2cccc(N3CCCC3)c2c(=O)n1-c1ccccc1`, the IC50 against PIK3CB (Human) and against PIK3CA (human) was more than 10 µM throughout.

For the compound `C[C@H](Nc1ncnc2[nH]cnc12)c1cc2cccc(-c3cn[nH]c3)c2c(=O)n1-c1ccccc1`, the IC50 was 0.1 to 1 µM on PIK3CG (human), more than 10 µM against PIK3CB (Human) and less than 0.1 µM against PIK3CD (Human).

`Cc1ccc(-c2cccc3cc([C@H](C)Nc4ncnc5[nH]cnc45)n(-c4ccccc4)c(=O)c23)cn1`: the IC50 against PIK3CG (human) is less than 0.1 µM; against PIK3CB (Human) it was more than 10 µM; against PIK3CD (Human), less than 0.1 µM.

Consider `C[C@H](Nc1nc(N)ncc1C#N)c1cc2cccc(-c3cnn(C)c3)c2c(=O)n1-c1ccccc1`, for which the IC50 against PIK3CG (human) was less than 0.1 µM; at PIK3CB (Human), more than 10 µM; on PIK3CD (Human), less than 0.1 µM; against PIK3CA (human), more than 10 µM.

As for `C[C@H](Nc1nc(N)ncc1C(F)(F)F)c1cc2cccc(-c3cnn(C)c3)c2c(=O)n1-c1ccccc1`, the concentration for half-maximal inhibition (IC50) on PIK3CG (human) was less than 0.1 µM; on PIK3CB (Human), more than 10 µM; at PIK3CD (Human), less than 0.1 µM; against PIK3CA (human) it was more than 10 µM.

`Cc1cc(-c2cccc3cc([C@H](C)Nc4ncnc5[nH]cnc45)n(-c4ccccc4)c(=O)c23)ccn1`: the IC50 against PIK3CG (human) was less than 0.1 µM; against PIK3CD (Human), less than 0.1 µM; against PIK3CA (human) it was 0.1 to 1 µM.

In the case of `C[C@H](Nc1ncnc2[nH]cc(C#N)c12)c1cc2cccc(-c3cnn(C)c3)c2c(=O)n1-c1ccccc1`, the IC50 is less than 0.1 µM against PIK3CG (human), less than 0.1 µM against PIK3CD (Human) and 0.1 to 1 µM on PIK3CA (human).

`C[C@H](Nc1ncnc2[nH]cnc12)c1cc2cccc(-c3cn[nH]c3)c2c(=O)n1C1CC1`: the IC50 was less than 0.1 µM at PIK3CG (human), 0.1 to 1 µM at PIK3CB (Human), less than 0.1 µM at PIK3CD (Human) and 0.1 to 1 µM against PIK3CA (human).

As for `C[C@H](Nc1ncnc2[nH]cnc12)c1cc2cccc(-c3cnn(C)c3)c2c(=O)n1C1CC1`, the IC50 against PIK3CG (human) was 0.1 to 1 µM; on PIK3CD (Human), less than 0.1 µM.

Regarding `C[C@H](Nc1ncnc2[nH]cnc12)c1cc2cccc(N3CCN(C)CC3)c2c(=O)n1-c1ccccc1`, the IC50 against PIK3CG (human) was more than 10 µM; against PIK3CB (Human), more than 10 µM; against PIK3CD (Human), 0.1 to 1 µM; against PIK3CA (human), more than 10 µM.

For `C=Cc1cccc2cc([C@H](C)Nc3ncnc4[nH]cnc34)n(-c3ccccc3)c(=O)c12`, the IC50 on PIK3CG (human) and against PIK3CD (Human) was less than 0.1 µM throughout.

A word on the IC50: it is the concentration that inhibits the measured activity by half. Higher therefore signals weaker potency.
